Values after ≈ are worked out from the molar mass of the structure shown. “Also recorded” adds a separate entry of the source. Like-named read-outs stand apart in the source and are kept apart here.
Key:
[1] = tested on: P. falciparum K1 strain; assay: In vitro assay for Plasmodium falciparum ([3H]-hypoxanthine incorporation); type: cell-based
Method: Activity against the erythrocytic stages of P. falciparum was determined using an in vitro modified [^3H]-hypoxanthine incorporation assay, using the chloroquine- and pyrimethamine-resistant K1 strain [68]. Compounds were dissolved in DMSO at 10 mg/mL and further diluted in medium before added to parasite cultures incubated in RPMI 1640 medium without hypoxanthine, supplemented with HEPES (5.94 g/l), NaHCO3 (2.1 g/L), neomycin (100 U/mL), AlbumaxR (5 g/L), and washed human red cells A+ at 2.5% haematocrit (0.3% parasitaemia). Serial drug dilutions of seven 3-fold dilution steps covering a range from 90 to 0.123 μg/mL were prepared. The 96 well plates were incubated in a humidified atmosphere at 37 °C; 4% CO2, 3% O2, 93% N2. After 48 h 50 μL of ^3H-hypoxanthine (=0.5 μCi) was added to each well of the plate. The plates were incubated for a further 24 h under the same conditions. The plates were then harvested with a Betaplate™ cell harvester (Wallac, Zurich, Switzerland), and the red blood cells transferred onto a glass fiber filter then washed with distilled water. The dried filters were inserted into a plastic foil with 10 mL of scintillation fluid, and counted in a Betaplate™ liquid scintillation counter (Wallac, Zurich, Switzerland). […] IC50 values were calculated from the sigmoidal inhibition curves using Microsoft Excel. Chloroquine was used as positive control drug.

[2] = tested on: T. brucei brucei; set-up: method as in PMID 20359874; details: life stage or form has not been reported; cited from earlier work
[3] = tested on: L. infantum promastigotes; set-up: method as in PMID 31151304; details: 24 h MTT assay; cited from earlier work
[4] = tested on: promastigote forms of L. chagasi; set-up: method as in PMID 23558998, PMID 23850505; details: cited from earlier work
[5] = tested on: Trypanosoma brucei rhodesiense STIB 900; assay: In vitro assay for Trypanosoma brucei rhodesiense (resazurin); type: cell-based
Method: Trypanosoma brucei rhodesiense STIB 900 strain, isolated in 1982 from a human patient in Tanzania and, after several mouse passages, cloned and adapted to axenic culture conditions, was used in this assay. Minimum essential medium (50 μL) supplemented with 25 mM HEPES, 1 g/L additional glucose, 1% MEM non-essential amino acids (100×), 0.2 mM 2-mercaptoethanol, 1 mM Na-pyruvate, and 15% heat inactivated horse serum was added to each well of a 96 well microtiter plate. Serial drug dilutions of seven 3-fold dilution steps covering a range from 90 to 0.123 μg/mL were prepared, and then 4 × 10^4 blood stream forms of T. b. rhodesiense STIB 900 in 50 μL were added to each well and the plate was incubated at 37 °C under a 5% CO2 atmosphere for 72 h. Resazurin solution (resazurin, 12.5 mg in 100 mL double-distilled water) (10 μL) was then added to each well and incubated for a further 2–4 h. At the end of the assay, the plates were read with a Spectramax Gemini XS microplate fluorometer (Molecular Devices Cooperation, Sunnyvale, CA, USA) using an excitation wavelength of 536 nm and an emission wavelength of 588 nm. Data were analyzed using the microplate reader software Softmax Pro (Molecular Devices Cooperation, Sunnyvale, CA, USA). Melarsoprol was used as standard drug.

[6] = tested on: T. brucei brucei STIB795; assay: In vivo trypanocidal activity, T. brucei brucei STIB795 mouse model; set-up: species or system Trypanosoma brucei brucei; details: for in vivo trypanocidal activity in mice (in words): 100 mg/kg i.p.; for Cured/Infected / Mean Survival: 100 mg/kg × 4 days i.p., NMRI mice; for Mean Survival: untreated control 5.25 days
Method: In vivo efficacy studies in mice were conducted at the Swiss Tropical and Public Health Institute (Basel) (License number 2813) according to the rules and regulations for the protection of animal rights (“Tierschutzverordnung”) of the Swiss “Bundesamt für Veterinärwesen”. They were approved by the veterinary office of Canton Basel-Stadt, Switzerland. Groups of four female NMRI mice weighing 20 to 25 g were infected i.p. on Day 0 (d0) with 10^5 bloodstream forms of T. brucei brucei STIB 795, which is a derivative of strain 427. Compounds were formulated in 100% DMSO diluted 10-fold in distilled water. Mice were treated on four consecutive days (d3 to d6 post-infection) with the Origanum onites oil, as well as carvacrol and thymol, at 100 mg/kg by the i.p. route. One group served as untreated controls, and two other groups were treated with the standard drugs pentamidine (5 mg/kg for 4 days) and melarsoprol (2 mg/kg for 4 days), respectively. The levels of parasitemia of the mice were checked by microscopic examination of tail blood on Day 7 and thereafter twice a week until Day 30 post infection. Mice were considered cured when there was no parasitaemia relapse detected in the tail blood over the 30 day observation period. The day of relapse and surviving days were recorded.

[7] = In vitro assay for cytotoxicity on mammalian cells (resazurin); type: cell-based, rat
Method: Assays were performed in 96 well microtiter plates (4 × 10^4 L6 cells/well), each well containing 100 μL of RPMI 1640 medium supplemented with 1% L-glutamine (200 mM) and 10% FBS. L6 cells are a primary cell line derived from rat skeletal myoblasts. Serial drug dilutions of seven 3-fold dilution steps covering a range from 90 to 0.123 μg/mL were prepared. After 72 h of incubation, the plates were inspected under an inverted microscope to assure growth of the controls and sterile conditions. Resazurin solution (10 μL) (12.5 mg resazurin in 100 mL double-distilled water) was then added to each well and the plates incubated for another 2 h. The plates were then read with a Spectramax Gemini XS microplate fluorometer (Molecular Devices Cooperation, Sunnyvale, CA, USA) using an excitation wavelength of 536 nm and an emission wavelength of 588 nm. Data were analyzed using the microplate reader software Softmax Pro (Molecular Devices Cooperation, Sunnyvale, CA, USA). From the sigmoidal inhibition curves, the IC50 values were calculated. Podophyllotoxin was the positive control.

SMILES | IC50 ([1]; K1, read-out: IC50 Plasmodium falciparum) [µg/mL] | IC50 T. brucei brucei [2] [µg/mL] | IC50 L. infantum promastigotes [3] [µg/mL] | IC50 promastigote forms of L. chagasi [4] [µg/mL] | IC50 ([5]; Trypanosoma brucei; STIB 900 blood stream forms, 72 h; means of two independent determinations ± deviation from the mean; read-out: IC50 Trypanosoma brucei rhodesiense) [µg/mL] | selectivity index (IC50 value against L6 mammalian cells/IC50 value against parasite) ([5]; against T. b. rhodesiense) | in vivo trypanocidal activity in mice (in words) [6] | Cured/Infected [6] | Mean Survival [6] [days] | IC50 at 72 h ([7]; rat) [µg/mL] | IC50 ([1]; K1 strain (chloroquine- and pyrimethamine-resistant), erythrocytic stages, means of two determinations ± deviation, read-out: IC50 Plasmodium falciparum) [µg/mL] | IC50 ([5]; Trypanosoma brucei, 72 h, STIB 900 blood stream forms, 72 h; means of two independent determinations ± deviation from the mean; read-out: IC50 Trypanosoma brucei rhodesiense) [µg/mL] | Mean Survival ([6]; listed as thymol) [days] | IC50 at 72 h ([7]; L6 cells (rat skeletal myoblasts), rat skeletal myoblasts, 72 h, means of two determinations ± deviation, read-out: IC50 Cytotoxicity L6 cells) [µg/mL]
Cc1ccc(C(C)C)cc1O [Carvacrol] | 6.4 ± 0.9 (≈ 42.6 µM) | 11.3 (≈ 75.2 µM) | 9.8 (≈ 65.2 µM) | 2.3 | 0.15 ± 0.04 (≈ 0.999 µM) | 327.5 | inactive | 0/4 | 5.25 | 48.8 ± 1.1 (≈ 325 µM) |  |  |  | 
Cc1ccc(C(C)C)c(O)c1 [Thymol] |  | 22.9 (≈ 152 µM) | 7.2 (≈ 47.9 µM) | 9.8 |  |  | extended the survival time of infected mice; also recorded: had some effect | 0/4 | 9.0 |  | 5.7 ± 0.03 (≈ 37.9 µM) | 0.11 ± 0.01 (≈ 0.732 µM) | 9 | 51.8 ± 6.2 (≈ 345 µM)
